These results are taken from US8592572B2, “Liposome containing shRNA molecule targeting a thymidylate synthase and use thereof” (Delta-Fly Pharma, Inc., priority 2011, dated 2013).

For one data set, the system named is MSTO 211H tumor. Nature of the data set: Antitumor effects of PEG-modified lipoplex upon systemic administration to MSTO 211H cancer-bearing mouse. Format: in vivo, BALB/c nu/nu male mice. The following applies: MSTO 211H tumor-bearing mice; day 21 from beginning of administration; lipoplex 40 μg shRNA i.v. 6 times; pemetrexed 100 mg/kg i.p. 6 times. Here is the method:
BALB/c nu/nu male mice were subcutaneously inoculated with a MSTO 211H cell suspension (5×10^6 cells/100 μL). On day 14 from tumor cell inoculation, mice with tumor volumes of 50-100 mm^3 were subjected to an in vivo experiment.
The PEG-modified lipoplex prepared in Example 5 was administered via the mouse caudal vein to the MSTO 211H tumor bearing mice at a dose of 40 μg/200 μL (in terms of the shRNA amount) at 1-day intervals for 6 times in total starting on day 14 after tumor transplantation.
When the existing chemotherapeutic agent, pemetrexed sodium hydrate (Alimta (registered trademark) (Eli Lilly Japan K.K.)), was used in combination with the lipoplex, the agent was intraperitoneally administered 6 times in total (day 1, 2, 3, 8, 9 and 10) with 100 mg/kg starting on day 14 after tumor transplantation.
Carcinostatic activity was determined with tumor growth inhibition rate (TGI) (%) at day 21 from beginning of the administration. The TGI (%) was calculated in the same manner as described in the Example 6.

Data set [1] relates to thymidylate synthase (TS). Nature of the data set: siRNA and shRNA-induced TS expression inhibition (transfection with Lf RNAi MAX, Western blotting). Format: cell-based, human. The following applies: 1, 5 or 10 nM, 72 hours after transfection. The protocol:
Lipofectamine™ RNAi MAX (hereafter referred to as “Lf RNAi MAX”), which is a cationic liposome, was used as a transfection reagent.
shRNA or siRNA prepared in Example 1 and Lf RNAi MAX were separately diluted with OptiMEM. The resulting solutions were mixed at a ratio of shRNA or siRNA to Lf RNAi MAX of 100 (pmol): 5 (μL). Here, equivalent amounts of the shRNA or siRNA solution and the Lf RNAi MAX solution were used. The obtained liquid mixture was left at room temperature for 10 to 20 minutes, resulting in complex (lipoplex) formation.
Each lipoplex was directly added to a 10-cm dish containing OptiMEM to adjust the total volume to 5 ml. Next, DLD-1 or DLD-1/FU cell suspension (10 ml) was seeded on the dish (500,000 cells/dish) so as to result in a final total volume of 15 ml, followed by transfection. Here, the final concentration of shRNA or siRNA was adjusted to 1, 5, or 10 nM. After the initiation of transfection, culture was carried out in a medium at 37° C. under 5% CO2 for 72 hours. […]
For detection of TS and β-actin, overnight reaction was carried out at 4° C. using the following primary antibodies each diluted with Tween buffer: a mouse monoclonal anti-human TS antibody (1:1000) (ANASPEC, Inc., CA, USA); and a mouse monoclonal anti-human β-actin antibody (1:500) (Bio Vision, Inc., CA, USA). […] The band of each protein of interest was detected on X-ray film.

For a further data set, the system named is DLD-1 cells. Nature of the data set: Cancer cell proliferation inhibitory effects of siRNA and shRNA, MTT, DLD-1. Format: cell-based, human. The following applies: 5 nM siRNA/shRNA, in the presence of 5-FU 0.1 μg/mL. The protocol:
(§1) In this Example, experimentation was performed on a 96-well plate scale. A lipoplex obtained as in the case of Example 2 was directly added to wells containing OptiMEM to adjust the total volume to 50 μl per well. Next, a DLD-1 or DLD-1/FU cell (human colonic intestinal adenocarcinoma cell) suspension (2,000 cells/100 μl) was added to the wells to which the lipoplex had been added (final total volume: 150 μl), followed by transfection. Here, the final concentration of shRNA or siRNA per well was 5 nM.
(§2) The medium was removed from each well 24 hours after the initiation of transfection. A fresh medium containing or not containing an existing chemotherapeutic agent, 5-FU, was added thereto (200 μl per well). Here, 5-FU was added to DLD-1 so as to result in a concentration of 0.1 μg/mL. 5-FU was added to DLD-1/FU so as to result in a concentration of 10 μg/mL. The medium was removed 0, 24, 48, 72, or 96 hours after the addition of the fresh medium. […] Also, the 0.5% MTT solution was added to cell-free wells to obtain a background absorbance.
(§3) After the completion of incubation, acidic isopropanol (150 μl) was added to each well. […] Absorbance was determined at a wavelength of 570 nm using a plate reader. Then, the cell proliferation rate was calculated. […]

The subject of the next data set is DLD-1/FU cells. Nature of the data set: Cancer cell proliferation inhibitory effects of siRNA and shRNA, MTT, DLD-1/FU. Format: cell-based, human. The following applies: 5 nM siRNA/shRNA, in the presence of 5-FU 10 μg/mL. The protocol:
as §1, §2, §3

The test system of the next data set is MSTO 211H cells. Nature of the data set: Human plura malignant mesothelioma cell proliferation inhibitory effects of shRNA, MTT. The following applies: 5 or 10 nM shRNA, in the presence of pemetrexed sodium hydrate 10 ng/mL. Format: cell-based. Here is the method: The experiment was carried out according to the method described in Example 3, except for using human plura malignant mesothelioma cell line (MSTO 211H) instead of human colorectal carcinoma cell line (DLD-1 or DLD-1/FU) and using pemetrexed sodium hydrate (Alimta (registered trademark) (Eli Lilly Japan K.K.)) instead of 5-FU as an existing chemotherapeutic agent. In the transfection, the final concentration of shRNA per well was either 5 or 10 nM. Pemetrexed sodium hydrate was added to a fresh medium at 10 ng/mL
Cell proliferation rate (%) was calculated in the same manner as described in the Example 3. FIG. 6 show the results.

`Nc1nc2[nH]cc(CCc3ccc(C(=O)N[C@@H](CCC(=O)O)C(=O)O)cc3)c2c(=O)[nH]1` [pemetrexed sodium hydrate]: in the data set on MSTO 211H tumor, the “tumor growth inhibitory effects (TGI)” value is listed as “approximately 28%”.
In the case of “shTS: shRNA targeting TS, SEQ ID NO: 8, 5′-GUAACACCAUCGAUCAUGAUAGUGCUCCUGGUUGUCAUGAUCGAUGGUGUUACUU-3′, with two-uracil 3′ overhang (short hairpin RNA, chemistry not given here, further chemistry not given here)”, the TS expression inhibition entry in data set [1] (DLD-1/FU cells) and in data set [1] (DLD-1 cells) was “significantly inhibit TS expression” in each case. Further, the “inhibition of cell proliferation” value with DLD-1 cells, in the data set with DLD-1/FU cells and in the data set with MSTO 211H cells was “significantly inhibited proliferation” in each case.
